Results as given in patent publication US20200087340A1, “LIF/LIFR ANTAGONIST IN ONCOLOGY AND NONMALIGNANT DISEASES” (Evestra, Inc., priority 2018, published 2020).

What was measured:
[1] = system: CCRF-CEM; assay: NCI-60 screening, Leukemia; format: cell-based, human
[2] = system: MOLT-4; assay: NCI-60 screening, Leukemia; format: cell-based, human
[3] = system: RPMI-8226; assay: NCI-60 screening, Leukemia; format: cell-based, human
[4] = system: A549/ATCC; assay: NCI-60 screening, Non-Small Cell Lung Cancer; format: cell-based, human
[5] = system: HOP-92; assay: NCI-60 screening, Non-Small Cell Lung Cancer; format: cell-based, human
[6] = system: NCI-H226; assay: NCI-60 screening, Non-Small Cell Lung Cancer; format: cell-based, human
[7] = system: NCI-H332M; assay: NCI-60 screening, Non-Small Cell Lung Cancer; format: cell-based, human
[8] = system: HCT-116; assay: NCI-60 screening, Colon Cancer; format: cell-based, human
[9] = system: M14; assay: NCI-60 screening, Melanoma; format: cell-based, human
[10] = system: SK-MEL-28; assay: NCI-60 screening, Melanoma; format: cell-based, human
[11] = system: UACC-62; assay: NCI-60 screening, Melanoma; format: cell-based, human
[12] = system: OVCAR-4; assay: NCI-60 screening, Ovarian Cancer; format: cell-based, human
[13] = system: 786-0; assay: NCI-60 screening, Renal Cancer; format: cell-based, human
[14] = system: A498; assay: NCI-60 screening, Renal Cancer; format: cell-based, human
[15] = system: SN12C; assay: NCI-60 screening, Renal Cancer; format: cell-based, human
[16] = system: TK-10; assay: NCI-60 screening, Renal Cancer; format: cell-based, human
[17] = system: HS 578T; assay: NCI-60 screening, Breast Cancer; format: cell-based, human
[18] = system: various cancer cells lines; assay: Cytotoxicity assays in various cancer cell lines; format: cell-based
[19] = system: IGROV1 (Ovarian) Xenograft; assay: Tumor xenograft study, IGROV1; format: in vivo, mice
Experimental: Uniform suspensions of human breast cancer MDA-MB-231 and human ovarian cancer IGROV1 cells (2×10^6) in 100 μL (0.02 carboxymethyl cellulose in phosphate buffered saline) were injected subcutaneously into the right and left flanks of 4- to 5-week-old female athymic nude mice (Charles River Laboratories). After 10 days, when the tumor […] reaches 100 mm^3, the mice were randomly allocated to 3 groups of each containing 6 animals. […] All drug was suspended in PBS followed by sonication (15 seconds with an intermittent interval of 5 seconds) for 1 minute. Tumors were allowed to reach palpability before drug intervention. Tumor size was measured every 3 days using digital Vernier Calipers and tumor volume was calculated using the ellipsoid formula [D×(d2)]/2, where D is the large diameter of the tumor and d represents the small diameter. On day 31, the mice were euthanized and tumors were harvested for protein and gene expression studies. […] FIG. 6B depicts a graph of tumor volume vs. time for the administration of EC300 at 2.5 mg/kg twice weekly in the MDA-MB-231 (TNBC) Xenograft. […] FIG. 7 depicts a graph of tumor volume vs. time for the administration of EC300 at 5 mg/kg 5 days per week in the IGROV1 (Ovarian) Xenograft. […] STAT3 phosphorylation is reduced in tumors that underwent treatment compared to control which is an indication of LIF downstream target.

Compound: C#CC(F)(F)[C@]1(O)CCC2C3CCC4=CC(=O)CCC4=C3C(c3ccc(C4CC4)cc3)C[C@@]21C (stereo partly drawn) [EC330, 17α-(1,1-difluoro-2-propyn-1-yl)-17β-hydroxy-11β-[4-p-(cyclopropyl)phenyl]estra-4,9-dien-3-one]
- TGI (log10TGI) [1]: <−8.00
- TGI (log10TGI) [2]: −5.30
- TGI (log10TGI) [3]: −6.24
- TGI (log10TGI) [4]: −4.61
- TGI (log10TGI) [5]: <−8.00
- TGI (log10TGI) [6]: −5.04
- TGI (log10TGI) [7]: >−4.00
- TGI (log10TGI) [8]: −4.55
- TGI (log10TGI) [9]: −4.45
- TGI (log10TGI) [10]: −5.43
- TGI (log10TGI) [11]: −5.27
- TGI (log10TGI) [12]: >−4.00
- TGI (log10TGI) [13]: <−8.00
- TGI (log10TGI) [14]: −6.01
- TGI (log10TGI) [15]: −4.58
- TGI (log10TGI) [16]: −4.91
- TGI (log10TGI) [17]: −4.99
- cytotoxicity (IC50's) in cytotoxicity assays [18]: low nanomolar
- antitumor activity ([19]; 5 mg/kg (5 days per week), 4 weeks, IGROV1 xenograft): potent antitumor activity
- apoptosis in xenograft tumors ([19]; IGR-OV1 ovarian cancer xenograft tumors): induced apoptosis dose dependently
- tumor growth ([19]; ovarian cancer model): significantly reduced
- STAT3 phosphorylation in tumors ([19]; treated compared to control): reduced
